Assay results taken from patent US20260070945A1, “MACROCYCLIC IMMUNOMODULATORS” (Bristol-Myers Squibb Company, priority 2022, published 2026).
Read-outs that look alike come from different tables or passages of the source. Where a SMILES comes first, the peptide text is derived from it. Bridges are numbered along the chain shown (N, C = ends). [ ]: non-standard residue; d: D form. The star is where a group is joined. ξ: configuration not given here. X3 = NCCC[C@H](NC(=O)CNCCNCCN*)C(=O)NCCCCCCCCCCC(=O)O; Phe(3-CF3) = N[C@@H](Cc1cccc(C(F)(F)F)c1)C(=O)O; Phe(4-CF3) = N[C@@H](Cc1ccc(C(F)(F)F)cc1)C(=O)O; Phe(4-COOH) = N[C@@H](Cc1ccc(C(=O)O)cc1)C(=O)O; Bip = N[C@@H](Cc1ccc(-c2ccccc2)cc1)C(=O)O; Phe(3-Me) = Cc1cccc(C[C@H](N)C(=O)O)c1; Abu(3S-NH2) = C[C@H](N)[C@H](N)C(=O)O; NH(CH2)12COOH = O=C(O)CCCCCCCCCCCCN*; Val(3-OH) = CC(C)(O)[C@H](N)C(=O)O; Cha = N[C@@H](CC1CCCCC1)C(=O)O; Ile(3ξ) = CCC(C)[C@H](N)C(=O)O; Thr(3ξ) = CC(O)[C@H](N)C(=O)O; Carboxymethyl = O=C(O)C*; NMeA = CN[C@@H](C)C(=O)O; Aun = NCCCCCCCCCCC(=O)O; Dab = NCC[C@H](N)C(=O)O; Dap = NC[C@H](N)C(=O)O; AEEA = NCCOCCOCC(=O)O; Ac3c = NC1(C(=O)O)CC1

Biological target: T1, PD-1/PD-L1 interaction (PE-labeled human PD-L1-Ig binding to Jurkat cell line over-expressing human PD-1) (Homo sapiens, UniProt Q15116)
T1 construct: expressed in transfected cells; host or cells: Jurkat
T1 sequence (Q15116 25-288): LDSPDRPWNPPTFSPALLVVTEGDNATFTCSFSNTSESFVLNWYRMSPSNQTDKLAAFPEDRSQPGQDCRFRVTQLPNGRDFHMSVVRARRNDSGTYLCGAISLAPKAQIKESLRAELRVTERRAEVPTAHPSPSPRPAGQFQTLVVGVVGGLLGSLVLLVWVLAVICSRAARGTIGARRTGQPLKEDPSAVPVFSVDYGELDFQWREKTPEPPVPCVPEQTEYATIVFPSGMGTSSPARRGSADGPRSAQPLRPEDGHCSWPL
Experiment: Jurkat-PD-1 Cell Binding High-Content Screening Assay (CBA)
Summary of the method: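 Cells 8×10^3/well, DMEM + 10% FCS; cpd 2 h, 37 °C; PE–PD-L1-Ig 20 nM final, 1 h; PFA fix + Hoechst 33342, 3× dPBS wash; high-content imager.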

[1] = Jurkat-hPD-1 cells, PE-labeled PD-L1-Ig 20 nM final; read-out: Jurkat HPD1 PDL1 IC50
[2] = PE-labeled PD-L1-Ig 20 nM final, Jurkat-hPD-1 cells; read-out: Jurkat HPD1 PDL1 IC50

Row | IC50 [1] [nM] | IC50 [2] [nM] | Structure (SMILES)
1 | 18 | – | CC(C)C[C@H]1NC(=O)[C@H](C)N(C)C(=O)[C@H](Cc2ccc(C(=O)O)cc2)NC(=O)[C@H](Cc2ccc(-c3ccccc3)cc2)NC(=O)[C@H](Cc2ccc(C(=O)O)cc2)NC(=O)[C@H](Cc2cccc(C(F)(F)F)c2)NC(=O)[C@H](CC(=O)O)NC(=O)[C@H](Cc2ccc(OCC(=O)O)cc2)NC(=O)[C@H]([C@H](C)N)NC(=O)CSC[C@@H](C(=O)N[C@@H](CCN)C(=O)NCCCCCCCCCCCCC(=O)O)NC(=O)[C@H](CCC(=O)O)NC(=O)[C@H](C(C)C)NC(=O)[C@H](CC2CCCCC2)NC(=O)[C@H](CCN)NC1=O [Example 1199] ({CH2CO}-[Abu(3S-NH2)]Y(Carboxymethyl)D[Phe(3-CF3)][Phe(4-COOH)][Bip][Phe(4-COOH)][NMeA][dL][Dab][Cha]VEC[Dab]-{NH(CH2)12COOH}; thioether N-14)
2 | – | 4.4 | CCC(C)[C@@H]1NC(=O)[C@H](Cc2ccc(-c3ccccc3)cc2)NC(=O)[C@H](C(C)C)NC(=O)[C@H](Cc2c[nH]c3ccccc23)NC(=O)[C@H](CC(=O)O)NC(=O)[C@H](Cc2ccc(C(=O)O)cc2)NC(=O)[C@H](Cc2cnc[nH]2)NC(=O)CSC[C@@H](C(=O)N[C@@H](CCN)C(=O)NCCOCCOCC(=O)NCCOCCOCC(=O)NCCCCCCCCCCC(=O)O)NC(=O)[C@H](C(C)O)NC(=O)[C@H](C(C)O)NC(=O)[C@H](CC2CCCCC2)NC(=O)[C@H](CCN)NC(=O)[C@@H](CC(C)C)NC(=O)[C@H](C)N(C)C1=O (stereo partly drawn) [Example 2529] ({CH2CO}-H[Phe(4-COOH)]DWV[Bip][Ile(3ξ)][NMeA][dL][Dab][Cha][Thr(3ξ)][Thr(3ξ)]C[Dab][AEEA][AEEA][Aun]-OH; thioether N-14)
3 | – | 60 | CC(=O)NCCCC[C@@H]1NC(=O)[C@H](C(C)(C)O)NC(=O)[C@H](CC2CCCCC2)NC(=O)[C@H](CCN)NC(=O)[C@@H](CC(C)C)NC(=O)[C@H](C)N(C)C(=O)[C@H](CCC(N)=O)NC(=O)[C@H](Cc2ccc(-c3ccccc3)cc2)NC(=O)[C@H](Cc2ccc(C(=O)O)cc2)NC(=O)[C@H](Cc2cccc(C(F)(F)F)c2)NC(=O)[C@H](CC(=O)O)NC(=O)[C@H](Cc2ccc(OCC(=O)O)cc2)NC(=O)[C@H](Cc2ccc(C(F)(F)F)cc2)NC(=O)CSC[C@@H](C(=O)N[C@@H](CCN)C(=O)NCCOCCOCC(=O)NCCCCCCCCCCCCC(=O)O)NC1=O [Example 2611] ({CH2CO}-[Phe(4-CF3)]Y(Carboxymethyl)D[Phe(3-CF3)][Phe(4-COOH)][Bip]Q[NMeA][dL][Dab][Cha][Val(3-OH)]K(Ac)C[Dab][AEEA]-{NH(CH2)12COOH}; thioether N-14)
4 | 23.6 | – | Cc1cccc(C[C@@H]2NC(=O)[C@H](CC(=O)O)NC(=O)[C@H](Cc3ccc(OCC(=O)O)cc3)NC(=O)[C@H](CN)NC(=O)CSC[C@@H](C(=O)NCCNCCNCC(=O)N[C@@H](CCCN)C(=O)NCCCCCCCCCCC(=O)O)NC(=O)[C@H](CO)NC(=O)[C@H](C(C)C)NC(=O)[C@H](CC(C)C)NC(=O)[C@H](CC(N)=O)NC(=O)[C@@H](CC(C)C)NC(=O)[C@H](C)N(C)C(=O)[C@H](C(C)C)NC(=O)[C@H](Cc3ccc(-c4ccccc4)cc3)NC(=O)[C@H](CC(C)C)NC2=O)c1 [Example 1064] ({CH2CO}-[Dap]Y(Carboxymethyl)D[Phe(3-Me)]L[Bip]V[NMeA][dL]NLVSC-X3; thioether N-14)
5 | 16.6 | – | Cc1cccc(C[C@@H]2NC(=O)[C@H](CC(=O)O)NC(=O)[C@H](Cc3ccc(OCC(=O)O)cc3)NC(=O)[C@H](Cc3ccc(OCC(=O)O)cc3)NC(=O)CSC[C@@H](C(=O)NC3(C(=O)NCCOCCOCC(=O)NCCCCCCCCCCC(=O)O)CC3)NC(=O)[C@H](CCCNC(=N)N)NC(=O)[C@H](C(C)C)NC(=O)[C@H](CC3CCCCC3)NC(=O)[C@H](CCN)NC(=O)[C@@H](CC(C)C)NC(=O)[C@H](C)N(C)C(=O)[C@H](Cc3ccc(O)cc3)NC(=O)[C@H](Cc3ccc(-c4ccccc4)cc3)NC(=O)[C@H](Cc3ccc(O)cc3)NC2=O)c1 [Example 1253] ({CH2CO}-Y(Carboxymethyl)Y(Carboxymethyl)D[Phe(3-Me)]Y[Bip]Y[NMeA][dL][Dab][Cha]VRC[Ac3c][AEEA][Aun]-OH; thioether N-14)
